According to publication PMC8398805, “Chemical Characterization and Anti-HIV-1 Activity Assessment of Iridoids and Flavonols from Scrophularia trifoliata” (Molecules, 2021):
“And” between values parts separate entries of the source, which are not always exact repeats. Identical values can stand only once. Like-named read-outs stand apart in the source and are kept apart here. Marks after values point to notes of the source that are not given here.

Assays:
[1] = biological target: T1, HIV-1 RT-associated RNase H activity (Human immunodeficiency virus type 1 group M subtype B, UniProt P04585); assay: RNase H polymerase-independent cleavage assay; type: biochemical; details: for IC50: compound concentration required to inhibit the HIV-1 RNase H activity by 50%; for remaining activity at 100 µM: read-out: HIV-1 RNase H percentage of control
T1 construct: The 1:1 ration between the p66/p51 subunits was also verified; made in house; host or cells: E. coli strain M15 with the p6HRT-prot vector
Protocol: HIV-1 RT group M subtype B. Heterodimeric RT was expressed and purified essentially as previously described. Briefly, protein was expressed in E. coli strain M15 containing the p6HRT-prot vector, induced with 1.7 mM isopropyl β-D-1-thiogalactopyranoside for 4 h. Protein purification was carried out with a BioLogic LP system (Biorad), using a combination of immobilized metal affinity and ion exchange chromatography. First, crude bacterial extract was clarified by centrifugation and loaded onto a Ni^2+-NTA-Sepharose column pre-equilibrated with a loading buffer (50 mM sodium phosphate buffer pH 7.8, containing 0.3 M NaCl, 10% glycerol, and 10 mM imidazole); RT was eluted with an imidazole gradient in wash buffer (0–0.5 M). Fractions were collected and protein purity was checked by SDS-PAGE and found to be higher than 90%. The 1:1 ration between the p66/p51 subunits was also verified. Enzyme-containing fractions were pooled and diluted 1:1 with 50 mM sodium phosphate buffer pH 7.0, containing 10% glycerol, and then loaded into a Hi-trap heparin HP GE (Healthcare Lifescience) using a loading buffer (50 mM sodium phosphate buffer pH 7.0, containing 10% glycerol and 150 mM NaCl). RT was eluted with Elute Buffer 2 (50 mM Sodium Phosphate pH 7.0, 10% glycerol, 1 M NaCl). Fractions were collected and protein was dialyzed and stored in a buffer containing 50 mM Tris-HCl pH 7.0, 25 mM NaCl, 1 mM EDTA, and 50% glycerol. Catalytic activities and protein concentrations were determined. Enzyme-containing fractions were pooled and aliquots were stored at −80 °C.
HIV RT-associated RNase H activity was measured as described (using the RNase H inhibitor RDS175911 as a control.) In a 100 µL reaction volume containing 50 mM Tris-HCl buffer with pH 7.8, 6 mM MgCl2, 1 mM dithiothreitol (DTT), 80 mM KCl, 0.25 µM hybrid RNA/DNA 5′-[…]-Fluorescin-3′ (HPLC, dry, QC: Mass Check) (available from Metabion (Planegg, Germany)) 5′-Dabcyl-[…]-3′ (HPLC, dry, QC: Mass Check), there were increasing concentrations of an inhibitor, whose dilution was made in water, and 20 ng of wt RT, according to a linear range of dose-response curve. The reaction mixture was incubated for 1 h at 37 °C, stopped by the addition of EDTA, and products were measured with a multilabel counter plate reader Victor 3 (Perkin Elmer model 1420-051 (Waltham, MA, USA)) equipped with filters for 490/528 nm (excitation/emission wavelength).

[2] = biological target: T2, HIV-1 IN in the presence of LEDGF/p75 (Human immunodeficiency virus type 1 group M subtype B, UniProt P04585); assay: HTRF LEDGF-dependent integrase assay; type: biochemical; details: for IC50: concentration required to inhibit IN catalytic activities, in the presence of LEDGF, by 50%; for remaining activity at 100 µM: in the presence of 100 µM compound concentration, read-out: HIV-1 IN LEDGF-dependent percentage of control
T2 construct: Recombinant 6xHis tagged IN protein was expressed and purified as described previously; 6xHis; made in house; host or cells: Escherichia coli BL21 (DE3) for IN
Protocol: Recombinant 6xHis tagged IN protein was expressed and purified as described previously. Briefly, IN was expressed in Escherichia coli strain BL21 (DE3). Initial purification was done using a Ni-Sepharose column with an imidazole gradient from 20 mM to 500 mM concentration in a 50 mM HEPES (pH 7.5) buffer containing 1 M NaCl, 7.5 mM CHAPS, and 2 mM β-mercaptoethanol. This was followed by a heparin column purification with a NaCl gradient from 0 to 1 M concentrations. His-LEDGF was purified by loading precipitate of cell lysate onto a heparin column and was eluted with an increasing NaCl gradient (200 mM to 1 M) in a 50 mM HEPES (pH 7.5) buffer containing 7.5 mM CHAPS and 2 mM β-mercaptoethanol. Peak fractions were pooled and loaded onto a Superdex 200 GL column and eluted in a buffer containing 50 mM HEPES (pH 7.5), 200 mM NaCl, and 2 mM β-mercaptoethanol. Fractions containing LEDGF were pooled and stored in 15% glycerol at −80 °C.
The HTRF assay allows measuring the inhibition of 3′-processing and strand-transfer IN reactions in the presence of recombinant LEDGF/p75 cellular cofactor [43]. Briefly, 50 nM IN was pre-incubated with an increasing concentration of compounds for 1 h at room temperature in reaction buffer containing 20 mM HEPES pH 7.5, 1 mM DTT, 1% Glycerol, 20 mM MgCl2, 0.05% Brij-35, and 0.1 mg/mL BSA. […] After the incubation, 4 nM of Europium-Streptavidin were added to the reaction mixture, and the HTRF signal was recorded using a Perkin Elmer Victor 3 plate reader using a 314 nm for the excitation wavelength and 668 and 620 nm for the wavelength of the acceptor and the donor substrate emission, respectively.

HIV-1 RT = details: cited from earlier work
[3] = in the presence of 100 µM compound concentration

## OC[C@H]1O[C@@H](O[C@@H]2OC=C[C@H]3[C@H](O)[C@@H]4O[C@]4(CO)[C@@H]23)[C@H](O)[C@@H](O)[C@@H]1O [Compound 1, catalpol]
[1]
  IC50: > 100 µM
[1]; [3]
  remaining activity at 100 µM: 100%
[2]
  IC50: > 100 µM
  remaining activity at 100 µM: 100%

## OCC1=C[C@@H](O)[C@@H]2C=CO[C@@H](O[C@@H]3O[C@H](CO)[C@@H](O)[C@H](O)[C@H]3O)[C@H]12 [Compound 2, aucubin]
[1]
  IC50: > 100 µM
[1]; [3]
  remaining activity at 100 µM: 100%
[2]
  IC50: > 100 µM
  remaining activity at 100 µM: 100%

## C[C@]1(O)C[C@@H](O)[C@@H]2C=CO[C@@H](O[C@@H]3O[C@H](CO)[C@@H](O)[C@H](O)[C@H]3O)[C@@H]21 [Compound 3, ajugol]
[1]
  IC50: > 100 µM
[1]; [3]
  remaining activity at 100 µM: 100%
[2]
  IC50: > 100 µM
  remaining activity at 100 µM: 77%

## CO[C@H]1[C@@H]2C=CO[C@@H](O[C@@H]3O[C@H](CO)[C@@H](O)[C@H](O)[C@H]3O)[C@@H]2[C@@]2(CO)O[C@@H]12 [Compound 4, methylcatalpol]
[1]
  IC50: > 100 µM
[1]; [3]
  remaining activity at 100 µM: 100%
[2]
  IC50: > 100 µM
  remaining activity at 100 µM: 80%

## COC1C2C=COC(OC3OC(CO)C(O)C(O)C3O)C2C2(O)COC12 (stereo not shown) [Compound 5, trifoliatoside A]
[1]
  IC50: > 100 µM
[1]; [3]
  remaining activity at 100 µM: 93%
[2]
  HIV-1 IN inhibition (in words): able to inhibit IN, selectively
  IC50: 95.5 ± 4.5 µM

## CO[C@H]1[C@@H]2C[C@@H]3OC[C@](O)([C@H]2[C@H](O[C@@H]2O[C@H](CO)[C@@H](O)[C@H](O)[C@H]2O)O3)[C@@H]1O [Compound 6, methylscutelloside]
[1]
  IC50: > 100 µM
[1]; [3]
  remaining activity at 100 µM: 100%
[2]
  IC50: 100 ± 0.5 µM

## CC(=O)O[C@@]1(C)C[C@@H](O)C2C=CO[C@@H](O[C@@H]3O[C@H](CO)[C@@H](O)[C@H](O)[C@H]3O)C21 (stereo partly shown) [Compound 7, ajugoside]
[1]
  IC50: > 100 µM
[1]; [3]
  remaining activity at 100 µM: 100%
[2]
  HIV-1 IN inhibition (in words): able to inhibit IN, selectively
  IC50: 74 ± 3.5 µM

## C[C@@H]1O[C@@H](OC[C@H]2O[C@@H](Oc3c(-c4ccc(O)c(O)c4)oc4cc(O)cc(O)c4c3=O)[C@H](O)[C@@H](O)[C@@H]2O)[C@H](O)[C@H](O)[C@H]1O [Compound 8, rutin]
[1]
  IC50: > 100 µM
[1]; [3]
  remaining activity at 100 µM: 100%
[2]
  HIV-1 IN inhibition (in words): submicromolar concentration
  IC50: 0.33 ± 0.04 µM

## CC1OC(Oc2cc(O)c3c(=O)c(OC4OC(CO)C(O)C(O)C4O)c(-c4ccc(O)cc4)oc3c2)C(O)C(O)C1O (stereo not shown) [Compound 9, kaempferol-7-O-rhamnosyl-3-O-glucopyranoside]
[1]
  IC50: > 100 µM
[1]; [3]
  remaining activity at 100 µM: 100%
[2]
  HIV-1 IN inhibition (in words): submicromolar concentration
  IC50: 0.024 µM and 0.11 µM

## O=c1c(OC2O[C@H](CO)[C@@H](O)[C@H](O)[C@H]2O)c(-c2ccc(O)cc2)oc2cc(O)cc(O)c12 (stereo partly shown) [Compound 11, kaempferol-3-O-glucopyranoside]
[1]
  IC50: > 100 µM
[1]; [3]
  remaining activity at 100 µM: 100%
[2]
  HIV-1 IN inhibition (in words): submicromolar concentration
  IC50: 0.11 µM and 0.024 µM

## C[C@]1(OC(=O)/C=C/c2ccccc2)C[C@@H](O)C2C=CO[C@@H](O[C@@H]3O[C@H](CO)[C@@H](O)[C@H](O)[C@H]3O)C21 (stereo partly shown) [Compound 12, laterioside]
[1]
  HIV-1 RNase H inhibition (in words): inactive
  IC50: > 100 µM
[1]; [3]
  remaining activity at 100 µM: 100%
[2]
  HIV-1 IN inhibition (in words): inactive
  IC50: > 100 µM
  remaining activity at 100 µM: 80%

## C[C@]1(OC(=O)/C=C\c2ccccc2)C[C@@H](O)C2C=CO[C@@H](O[C@@H]3O[C@H](CO)[C@@H](O)[C@H](O)[C@H]3O)C21 (stereo partly shown) [Compound 13, trifoliatoside B]
[1]
  IC50: > 100 µM
[1]; [3]
  remaining activity at 100 µM: 92%
[2]
  IC50: 5.96 ± 0.1 µM

## CCOC(=O)C(=O)CC(=O)/C=C/c1cccn1Cc1ccccc1Cl [RDS1759, reference compound]
[1]
  IC50: 7.3 ± 0.1 µM

## O=C(O)[C@H]1O[C@@H](Oc2cc3oc(-c4ccccc4)cc(=O)c3c(O)c2O)[C@H](O)[C@@H](O)[C@@H]1O [baicalin]
HIV-1 RT; baicalin from Scutellaria baicalensis
  HIV-1 RT IC50: 0.2 mg/L

## O=c1c(O)c(-c2ccc(O)cc2)oc2cc(O)cc(O)c12 [kaempferol]
HIV-1 RT; kaempferol from Securigera securidaca
  HIV-1 RT IC50: 50 mg/L

## kaempferol-3-O-rutinoside [Compound 10]
[1]; [3]
  HIV-1 RNase H percentage of control: >100 (100%) ^c
